From ChEMBL document CHEMBL3507680, “University of Dundee, Gates Library screen for HepG2 cell viability”

Test: Human HepG2 cell viability assay in 384 well format
Assay type: toxicity, cell-based
Set-up: dose 125 nL, time 70.5 hour; concentration not given beside the values
Conditions: HepG2 cells, read-out: Inhibition

Structure (SMILES) | cytotoxicity at 70.5 h [%]
Cc1ccc(S(=O)(=O)N2CC[C@@H]3C[C@H](NC(=O)c4n[nH]cc4Cl)[C@@H]32)cc1 | -1.23
Cc1cnc(-c2nc(C3CCCN(Cc4cccs4)C3)no2)cn1 (stereo not given) | 23.7
CC(C)C(=O)N1CCCC([C@@H]2C[C@H](C(F)F)n3ncnc3N2)C1 (stereo not given in full) | -3.96
COCC(=O)N[C@@H]1CN(Cc2c[nH]nc2-c2cccs2)C[C@H]1O | -2.93
COc1ccc(CC(=O)N2CCN(Cc3ccco3)C[C@@H]2C)cc1 | -7.32
COc1ccc(CC(=O)N2CCN(Cc3ccco3)C[C@@H]2C)cc1OC | -3.94
COc1ccccc1-c1ccc(C2CCCN(C(C)=O)C2)nc1 (stereo not given) | -0.199
c1cc(C2CN(C3CCCC3)C2)n[nH]1 | -1.02
CCN(Cc1ccncc1)c1cc(C2CCN2C(C)=O)nc(C)n1 (stereo not given) | -1.55
CC(=O)N1CCC(C)(c2cc(C(=O)NCC(C)(C)C)nc(C)n2)CC1 | 9.62
Cc1nc(CN2CCCC(c3cnccn3)C2)cs1 (stereo not given) | -2.76
CC(C)c1cc(C(=O)N2CCC3(CCc4ccccc4C(=O)N3)C2)on1 (stereo not given) | -2.23
CC(NC(=O)CCn1c(=O)oc2ccccc21)c1ccccn1 (stereo not given) | -2.59
Cc1cccc(-c2nccnc2C2CCCN(C)C2)c1C (stereo not given) | 18.2
CC(=O)NCC(=O)N1CCCC1c1ccc(CN2CCOCC2)cn1 (stereo not given) | -4.76
CC(=O)N1CCCC1c1ccc(CN2CCOCC2)cn1 (stereo not given) | 16.7
CC1(Cc2ccc(F)cc2)Cc2cc(C(=O)NCCO)ccc2O1 (stereo not given) | -0.493
Cc1csc(NC(=O)C2(C)CN(C)CCO2)n1 (stereo not given) | 1.56
O=C(c1cccnc1)N1CCCC(c2ccnc3nccn23)C1 (stereo not given) | 7.06
Cc1c[nH]c(C2COCCN2C(=O)CCc2c(C)n[nH]c2C)n1 (stereo not given) | -9.97
Cc1cc(N2CCCC2c2cnccn2)ncn1 (stereo not given) | -5.35
CCc1nnc(Nc2cccc(C3CCN(CCO)CC3)n2)s1 | 7.17
Cc1c[nH]nc1C1CCN(S(=O)(=O)N(C)C)CC1 | 0.689

Structure (SMILES) | cytotoxicity at 70.5 h [%]
CN(C)C(=O)C1CN(Cc2cscn2)CCN(S(C)(=O)=O)C1 (stereo not given) | 7.94
CN1CCC(Cc2cc(Nc3ncccn3)ncn2)CC1 | -4.15
Cc1nn(C)cc1CN1CCC(C2Nc3ccccc3S(=O)(=O)N2)CC1 (stereo not given) | -12.8
O=C(CCC1CCCC1)N1CCC(c2ncc3c(n2)CCNC3)CC1 | 11.5
CN(CC1(O)CCCN(c2ccccn2)C1)C(=O)Cc1ccsc1 (stereo not given) | -9.68
Cc1nc(NC2CCCC2)cc(C2CCN2C(=O)c2ccccc2)n1 (stereo not given) | 14.2
CN1CCCC1c1cccc(Cc2ccccc2F)n1 (stereo not given) | 0.232
c1cncc(C2=NOC3(CCN(Cc4c[nH]c5ccccc45)CC3)C2)c1 | 5.06
c1ccc(C2=NOC3(CCN(Cc4c[nH]c5ccccc45)CC3)C2)cc1 | 11.1
CN1CC(=O)N(c2cccnc2)Cc2c(NC3CC3)ncnc21 | -0.235
CC(C)CN1CCCC(c2nc(O)c3cc(F)ccc3n2)C1 (stereo not given) | 1.3
Cc1ccc2nc(C3CCCN(CC(C)C)C3)nc(O)c2c1 (stereo not given) | -2.98
CCN1CCCC(c2nc(O)c3cc(C)ccc3n2)C1 (stereo not given) | -8.23
O=C(c1ccc2c(c1)OCO2)N1CCC(C(=O)O)(c2ccccc2)CC1 | -11.1
CC(C)C1=NOC2(CCN(S(C)(=O)=O)CC2)C1 | -12.4
COc1ccccc1-c1cc(C(=O)N2CCCC2)c2cnn(C)c2n1 | -5.55
Cc1nn(C)cc1S(=O)(=O)NCC(c1ccccc1)N1CCCCCC1 (stereo not given) | 17.9
Cc1cnc(-c2nc(C3CCCN(Cc4ccccc4C)C3)no2)cn1 (stereo not given) | 21.7
Cc1cccc(CNc2cc(C3CCCNC3)ccn2)n1 (stereo not given) | -7.94
Cc1noc2nc(C3CCN(CC4=CCCOC4)CC3)cc(C(F)F)c12 | -7.18
CC1(C)CC(N(Cc2ccccc2)Cc2ncc[nH]2)CC(C)(C)N1 | -1.78
CC1(C)CC(N(Cc2ccccc2)Cc2c[nH]cn2)CC(C)(C)N1 | 2.11
